Where “and” joins values, the source holds several entries; their conditions need not be identical. Identical values can stand only once. Like-named read-outs stand apart in the source and are kept apart here.
Key:
[1] = tested on: cockspur grass; assay: whole plant or invertebrate; format: in vivo; settings: Echinochloa crus-galli, 120 h
[2] = tested on: rape; assay: whole plant or invertebrate; format: in vivo; settings: 120 h
[3] = tested on: Capsella bursa-pastoris; assay: whole plant or invertebrate; format: in vivo; settings: 600 h, read-out: weed clearing activity, Capsella bursa-pastoris Postemergence
[4] = tested on: Amaranthus retroflexus; assay: whole plant or invertebrate; format: in vivo
[5] = tested on: Eclipta prostrata; assay: whole plant or invertebrate; format: in vivo
[6] = tested on: weeds of the expanded weed killing spectrum; settings: in vivo
[7] = tested on: rice; settings: in vivo
[8] = tested on: corn; settings: in vivo
[9] = tested on: cotton; settings: in vivo
[10] = tested on: soybean; settings: in vivo
[11] = tested on: rape; settings: in vivo
[12] = tested on: Wheat; settings: in vivo
[13] = read-out: weed clearing activity, cockspur grass Root (Effect)
[14] = read-out: weed clearing activity, cockspur grass Stem (Effect)
[15] = read-out: weed clearing activity, rape Root (Effect)
[16] = read-out: weed clearing activity, rape Stem (Effect)
[17] = Amaranthus retroflexus, 600 h, read-out: weed clearing activity, Amaranthus retroflexus Postemergence
[18] = Eclipta prostrata, 600 h, read-out: weed clearing activity, Eclipta prostrata Postemergence

CC(OC(=O)COc1ccc(Cl)cc1Cl)P1(=O)OCC(C)(C)CO1 (stereo not shown) [Compound 11, 2-(2,4-dichlorophenoxyethylacyloxy)(methyl)methyl-5,5-dimethyl-1,3,2-dioxaphosphorinan-2-one phosphonate]
pest or weed control at 10 µg/g [1, 13]: 100%
pest or weed control at 100 µg/g [1, 13]: 100%
pest or weed control at 10 µg/g [1, 14]: 55%
pest or weed control at 100 µg/g [1, 14]: 57%
plant injury at 10 µg/g [2, 15]: 99%
plant injury at 100 µg/g [2, 15]: 99%
plant injury at 10 µg/g [2, 16]: 88%
plant injury at 100 µg/g [2, 16]: 92%
pest or weed control at 37.5 g/ha [3]: 90%
pest or weed control at 75 g/ha [3]: 100%
pest or weed control at 150 g/ha [3]: 100%
pest or weed control at 37.5 g/ha [4, 17]: 70%
pest or weed control at 75 g/ha [4, 17]: 90%
pest or weed control at 150 g/ha [4, 17]: 80%
weed clearing activity, Amaranthus retroflexus Postemergence (※) ([4]; in vivo): 100^※ %
weed clearing activity, Amaranthus retroflexus Postemergence, value in parentheses ([4]; in vivo): 90(70) %
pest or weed control at 37.5 g/ha [5, 18]: 50%
pest or weed control at 75 g/ha [5, 18]: 85%
pest or weed control at 150 g/ha [5, 18]: 70%
weed clearing activity, Eclipta prostrata Postemergence (※) ([5]; in vivo): 90^※ %
weed clearing activity, Eclipta prostrata Postemergence, value in parentheses ([5]; in vivo): 85(70) %
Activity of expanded weed killing spectrum, Abutilon theophrasti [6]: 70% and 75%
Activity of expanded weed killing spectrum, Alligator alternanthera [6]: 60%
Activity of expanded weed killing spectrum, Cayenne pepper [6]: 70% and 75%
Activity of expanded weed killing spectrum, Cucumis sativus [6]: 40% and 50%
Activity of expanded weed killing spectrum, Pakchoi [6]: 85%
Activity of expanded weed killing spectrum, Pigweed [6]: 85%
Activity of expanded weed killing spectrum, Tomato [6]: 70% and 75%
Inhibitory activity on the crops, Rice [7]: 10
Inhibitory activity on the crops, Corn [8]: 0
Inhibitory activity on the crops, Cotton [9]: 30
Inhibitory activity on the crops, Soybean [10]: 30
Inhibitory activity on the crops, Rape [11]: 40
Inhibitory activity on the crops, Wheat [12]: 0

— US9029542B2 (priority 2011, dated 2015)
